Results from patent publication US20250228239A1, “MOLECULES HAVING PESTICIDAL UTILITY, AND INTERMEDIATES, COMPOSITIONS, AND PROCESSES, RELATED THERETO” (priority 2024, published 2025).

Assays:
[1] = test system: Cabbage Looper (Trichoplusia ni, TRIPNI); test: Bioassays on Cabbage Looper (CL), 128-well diet tray assay; format: in vivo; conditions: Trichoplusia ni; Cabbage Looper, Table ABC / ABC-DP rating; read-out: CL rating
Procedure, shortened: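 Each of eight wells receives artificial diet treated at 50 μg/cm^2 with the test molecule, then one to five second-instar larvae. Incubation runs five to seven days at 25° C with a 14:10 light-dark cycle under vented covers. Mortality is scored per well as a percentage and averaged.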

[2] = test system: Beet Armyworm (Spodoptera exigua, LAPHEG); test: Bioassays on Beet Armyworm (BAW), 128-well diet tray assay; format: in vivo; conditions: Spodoptera exigua; Beet Armyworm, Table ABC / ABC-DP rating; read-out: BAW rating
Procedure, shortened: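 One to five second-instar larvae per well on artificial diet surface-treated with 50 μg/cm^2 test molecule (applied in 90:10 acetone-water, dried), eight wells per compound. Trays held vented at 25° C., 14:10 light-dark for five to seven days; percent mortality averaged over the eight wells.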

| Compound | pest or weed control at 50 µg/cm2 [1] | pest or weed control at 50 µg/cm2 [2] |
| --- | --- | --- |
| O=C(NCCCCl)c1cc(NC(=O)[C@H]2[C@H](c3ccc(F)c(Cl)c3)C2(Cl)Cl)cc(F)c1F (relative stereo) [F2052, trans-N-(3-Chloropropyl)-5-(2,2-dichloro-3-(3-chloro-4-fluorophenyl)cyclopropane-1-carboxamido)-2,3-difluorobenzamide] | 50 to 100% | 50 to 100% |
| CCNC(=O)c1cc(NC(=O)[C@H]2[C@H](c3ccc(F)c(Cl)c3)C2(Cl)Cl)cc(C(F)(F)F)c1Cl (relative stereo) [F2053, trans-2-Chloro-5-(2,2-dichloro-3-(3-chloro-4-fluorophenyl)cyclopropane-1-carboxamido)-N-ethyl-3-(trifluoromethyl)benzamide] | 50 to 100% | 50 to 100% |
| COc1c(Cl)cc(NC(=O)[C@H]2[C@H](c3ccc(F)c(Cl)c3)C2(Cl)Cl)cc1C(=O)NCC(F)(F)F (relative stereo) [F2061, trans-3-Chloro-5-(2,2-dichloro-3-(3-chloro-4-fluorophenyl)cyclopropane-1-carboxamido)-2-methoxy-N-(2,2,2-trifluoroethyl)benzamide] | 50 to 100% | 50 to 100% |
| COc1c(Cl)cc(NC(=O)[C@H]2[C@H](c3ccc(F)c(Cl)c3)C2(Cl)Cl)cc1C(=O)NCC(F)(F)C(F)(F)F (relative stereo) [F2062, trans-3-Chloro-5-(2,2-dichloro-3-(3-chloro-4-fluorophenyl)cyclopropane-1-carboxamido)-2-methoxy-N-(2,2,3,3,3-pentafluoropropyl)benzamide] | 50 to 100% | 50 to 100% |
| O=C(NNc1ccc(Cl)c(C(F)(F)F)c1)c1cc(NC(=O)[C@H]2[C@H](c3cc(Cl)cc(Cl)c3)C2(Cl)Cl)ccc1Cl (relative stereo) [F2501, trans-2,2-dichloro-N-(4-chloro-3-(2-(4-chloro-3-(trifluoromethyl)phenyl)hydrazine-1-carbonyl)phenyl)-3-(3,5-dichlorophenyl)cyclopropane-1-carboxamide] | 50 to 100% | 50 to 100% |
| CN(NC(=O)c1cc(NC(=O)[C@H]2[C@H](c3cc(Cl)cc(Cl)c3)C2(Cl)Cl)ccc1Cl)c1ccccn1 (relative stereo) [F2503, trans-2,2-Dichloro-N-(4-chloro-3-(2-methyl-2-(pyridin-2-yl)hydrazine-1-carbonyl)phenyl)-3-(3,5-dichlorophenyl)cyclopropane-1-carboxamide] | 50 to 100% | 50 to 100% |
| O=C(CC(F)(F)F)NNC(=O)c1cc(NC(=O)[C@H]2[C@H](c3cc(Cl)cc(Cl)c3)C2(Cl)Cl)ccc1Cl (relative stereo) [F2516, trans-2,2-Dichloro-N-(4-chloro-3-(2-(3,3,3-trifluoropropanoyl)hydrazine-1-carbonyl)phenyl)-3-(3,5-dichlorophenyl)cyclopropane-1-carboxamide] | 50 to 100% | 50 to 100% |
| O=C(NNC(=O)C1CC1(F)F)c1cc(NC(=O)[C@H]2[C@H](c3cc(Cl)cc(Cl)c3)C2(Cl)Cl)ccc1Cl (relative stereo) [F2517, trans-2,2-Dichloro-N-(4-chloro-3-(2-(2,2-difluorocyclopropane-1-carbonyl)hydrazine-1-carbonyl)phenyl)-3-(3,5-dichlorophenyl)cyclopropane-1-carboxamide] | 50 to 100% | 50 to 100% |
| CN(NC(=O)c1cc(NC(=O)[C@H]2[C@H](c3cc(Cl)cc(Cl)c3)C2(Cl)Cl)ccc1Cl)C(=O)C(F)(F)F (relative stereo) [F2523, trans-2,2-Dichloro-N-(4-chloro-3-(2-methyl-2-(2,2,2-trifluoroacetyl)hydrazine-1-carbonyl)phenyl)-3-(3,5-dichlorophenyl)cyclopropane-1-carboxamide] | 50 to 100% | 50 to 100% |
| CN(C)CC(=O)N(C)NC(=O)c1cc(NC(=O)[C@H]2[C@H](c3cc(Cl)cc(Cl)c3)C2(Cl)Cl)ccc1Cl (relative stereo) [F2526, trans-2,2-Dichloro-N-(4-chloro-3-(2-(dimethylglycyl)-2-methylhydrazine-1-carbonyl)phenyl)-3-(3,5-dichlorophenyl)cyclopropane-1-carboxamide] | 50 to 100% | 50 to 100% |
| CN(NC(=O)c1cc(NC(=O)[C@H]2[C@H](c3cc(Cl)cc(Cl)c3)C2(Cl)Cl)ccc1Cl)C(=O)c1ccccc1 (relative stereo) [F2527, trans-N-(3-(2-Benzoyl-2-methylhydrazine-1-carbonyl)-4-chlorophenyl)-2,2-dichloro-3-(3,5-dichlorophenyl)cyclopropane-1-carboxamide] | 50 to 100% | 50 to 100% |
| O=C(CC1CC1)NNC(=O)c1cc(NC(=O)[C@H]2[C@H](c3cc(Cl)cc(Cl)c3)C2(Cl)Cl)ccc1Cl (relative stereo) [F2528, trans-2,2-Dichloro-N-(4-chloro-3-(2-(2-cyclopropylacetyl)hydrazine-1-carbonyl)phenyl)-3-(3,5-dichlorophenyl)cyclopropane-1-carboxamide] | 50 to 100% | 50 to 100% |
| COCC(=O)NNC(=O)c1cc(NC(=O)[C@H]2[C@H](c3cc(Cl)cc(Cl)c3)C2(Cl)Cl)ccc1Cl (relative stereo) [F2529, trans-2,2-Dichloro-N-(4-chloro-3-(2-(2-methoxyacetyl)hydrazine-1-carbonyl)phenyl)-3-(3,5-dichlorophenyl)cyclopropane-1-carboxamide] | 50 to 100% | 50 to 100% |
| O=C(NNC(=O)C(C(F)(F)F)C(F)(F)F)c1cc(NC(=O)[C@H]2[C@H](c3cc(Cl)cc(Cl)c3)C2(Cl)Cl)ccc1Cl (relative stereo) [F2532, trans-2,2-Dichloro-N-(4-chloro-3-(2-(3,3,3-trifluoro-2-(trifluoromethyl)propanoyl)hydrazine-1-carbonyl)phenyl)-3-(3,5-dichlorophenyl)cyclopropane-1-carboxamide] | 50 to 100% | 50 to 100% |
| CN(NC(=O)c1cc(NC(=O)[C@H]2[C@H](c3cc(Cl)cc(Cl)c3)C2(Cl)Cl)ccc1Cl)C(=O)CC(F)(F)F (relative stereo) [F2533, trans-2,2-Dichloro-N-(4-chloro-3-(2-methyl-2-(3,3,3-trifluoropropanoyl)hydrazine-1-carbonyl)phenyl)-3-(3,5-dichlorophenyl)cyclopropane-1-carboxamide] | 50 to 100% | 50 to 100% |
| CN(NC(=O)c1cc(NC(=O)[C@H]2[C@H](c3cc(Cl)cc(Cl)c3)C2(Cl)Cl)ccc1Cl)C(=O)C1CC1(F)F (relative stereo) [F2534, trans-2,2-Dichloro-N-(4-chloro-3-(2-(2,2-difluorocyclopropane-1-carbonyl)-2-methylhydrazine-1-carbonyl)phenyl)-3-(3,5-dichlorophenyl)cyclopropane-1-carboxamide] | 50 to 100% | 50 to 100% |
| O=C(NCC(F)(F)F)NNC(=O)c1cc(NC(=O)[C@H]2[C@H](c3cc(Cl)cc(Cl)c3)C2(Cl)Cl)ccc1Cl (relative stereo) [F2535, trans-2-(2-chloro-5-(2,2-dichloro-3-(3,5-dichlorophenyl)cyclopropane-1-carboxamido)benzoyl)-N-(2,2,2-trifluoroethyl)hydrazine-1-carboxamide] | 50 to 100% | 50 to 100% |
| CC(C)NC(=O)NNC(=O)c1cc(NC(=O)[C@H]2[C@H](c3cc(Cl)cc(Cl)c3)C2(Cl)Cl)ccc1Cl (relative stereo) [F2536, trans-2-(2-Chloro-5-(2,2-dichloro-3-(3,5-dichlorophenyl)cyclopropane-1-carboxamido)benzoyl)-N-isopropylhydrazine-1-carboxamide] | 50 to 100% | 50 to 100% |
| O=C(NNC(=S)NCC(F)(F)F)c1cc(NC(=O)[C@H]2[C@H](c3cc(Cl)cc(Cl)c3)C2(Cl)Cl)ccc1Cl (relative stereo) [F2539, trans-2,2-dichloro-N-(4-chloro-3-(2-((2,2,2-trifluoroethyl)carbamothioyl)hydrazine-1-carbonyl)phenyl)-3-(3,5-dichlorophenyl)cyclopropane-1-carboxamide] | 50 to 100% | 50 to 100% |
| CC(C)NC(=S)NNC(=O)c1cc(NC(=O)[C@H]2[C@H](c3cc(Cl)cc(Cl)c3)C2(Cl)Cl)ccc1Cl (relative stereo) [F2540, trans-2,2-Dichloro-N-(4-chloro-3-(2-(isopropylcarbamothioyl)hydrazine-1-carbonyl)phenyl)-3-(3,5-dichlorophenyl)cyclopropane-1-carboxamide] | 50 to 100% | 50 to 100% |
| O=C(NNCc1cc(F)ccc1F)c1cc(NC(=O)[C@H]2[C@H](c3cc(Cl)cc(Cl)c3)C2(Cl)Cl)ccc1Cl (relative stereo) [F2546, trans-2,2-Dichloro-N-(4-chloro-3-(2-(2,5-difluorobenzyl)hydrazine-1-carbonyl)phenyl)-3-(3,5-dichlorophenyl)cyclopropane-1-carboxamide] | 50 to 100% | 50 to 100% |
| CC(NNC(=O)c1cc(NC(=O)[C@H]2[C@H](c3cc(Cl)cc(Cl)c3)C2(Cl)Cl)ccc1Cl)c1ccccc1 (relative stereo) [F2548, trans-2,2-Dichloro-N-(4-chloro-3-(2-(1-phenylethyl)hydrazine-1-carbonyl)phenyl)-3-(3,5-dichlorophenyl)cyclopropane-1-carboxamide] | 50 to 100% | 50 to 100% |
